Measurements from patent publication US20220081481A1, “USE OF AGENTS CAPABLE OF INDUCING LC3-ASSOCIATED PHAGOCYTOSIS FOR TREATING SUSTAINED INFLAMMATION IN PATIENTS SUFFERING FROM CHRONIC LIVER DISEASE” (INSERM (INSTITUT NATIONAL DE LA SANTÉ ET DE LA RECHERCHE …, priority 2019, published 2022).

System: PBMC from cirrhotic patients and healthy donors
Test: Western blot of LC3-II lipidation in PBMC
Assay type: cell-based, human
Conditions: 30 μM chloroquine diphosphate, data not shown
Experimental: Peripheral blood mononuclear cells (PBMC) and monocyte isolation. PBMC were prepared from the blood of cirrhotic patients and healthy donors, using Ficoll density gradient centrifugation (Ficoll Paque™-plus, GE Healthcare, 17-1440-02), as previously described^43.
Cell treatment. Human monocytes, THP1-XBlue™-CD14 (Invivogen, Catalog #thpx-cd14sp) and THP1-FcγRIIA+−CD14+(kindly provided by Novimmune) monocytes were used. When indicated cells were exposed to either 30 μM chloroquine diphosphate (Sigma, C6628), 10 mM 3-Methyladenine (3-MA, Sigma, M9281-100 mg), 10 mM Diphenyleneiodonium chloride (DPI, Sigma, D2926-10 mg), or 10 mg/ml IVIg (Privigen, 100 mg/ml) for 4 hrs at 37° C., as indicated. We also used commercially synthetized Tat-conjugated peptides (30 μM, GeneCust, Dudelange): i) the Tat-p22phox N8 peptide corresponding to eight N-terminal amino acids (3-10) of p22phox that blocks the Rubicon-p22phox interaction^19; ii) its control mutant Tat-N8W9A peptide, in which one tryptophan residue is replaced by Alanine^19). In some experiments, cells were exposed to the preformed complex (10 μg/ml of mouse anti-hFcγRII mAb (clone AT-10, Santa Cruz, sc-13527) F(ab′)2 fragments+20 μg/ml goat anti-mouse anti-kappa F(ab′)2 fragments (Southern Biotech, 1052-01) or to 100 μg/ml of anti-hFcγRIIA mAb F(ab′)2 fragments (clone IV.3), purified as we previously described^26. […]

CCN(CC)CCCC(C)Nc1ccnc2cc(Cl)ccc12 (centres unmarked) [chloroquine, chloroquine diphosphate] was tested, and the LC3-II lipidation (PBMC from cirrhotic patients) was “further enhanced” and the LC3-II lipidation (cells from healthy donors) was “affected more marginally”.
